Experimental data reported in US20240279283A1, “CYCLIC PEPTIDE ANTIBIOTICS” (priority 2021, published 2024).
Bridge positions count the residues as written; N and C are the ends. Square brackets hold non-standard residues; d marks the D form. Peptide text beside a SMILES is read from it. Bip = N[C@@H](Cc1ccc(-c2ccccc2)cc1)C(=O)O; 1Nal = N[C@@H](Cc1cccc2ccccc12)C(=O)O; His(π-Me) = Cn1cncc1C[C@H](N)C(=O)O; NMeY = CN[C@@H](Cc1ccc(O)cc1)C(=O)O; NMeF = CN[C@@H](Cc1ccccc1)C(=O)O; Abu = CC[C@H](N)C(=O)O; Aib = CC(C)(N)C(=O)O

Legend:
Assay type in all cases: cell-based
Settings in all cases: LB broth, 5×10^5 CFU/ml, 37° C., 18 hours, scored by eye
E. coli 25922 IMP = assay: Minimum Inhibitory Concentration (MIC) determination, E. coli 25922 IMP
Experimental: (§1) MICs were determined by performing two-fold serial dilutions of peptides in LB broth to a final volume of 0.1 ml in round-bottom 96-well assay plates (Corning Life Sciences No 3788). Peptides were initially resuspended in 100% DMSO to 10 mM and subsequently diluted in LB medium to the appropriate concentration. Each well was inoculated with 5×10^5 CFU/ml of the screening stain and incubated at 37° C. without agitation for 18 hours. Plates were scored by eye, and the lowest compound concentration preventing visible growth was determined to be the MIC.

E. coli 25922 = assay: Minimum Inhibitory Concentration (MIC) determination, E. coli 25922; design: unit not given here
Experimental: as §1

E. coli BW25113 = assay: Minimum Inhibitory Concentration (MIC) determination, E. coli BW25113; design: unit not given here
Experimental: as §1

| SMILES | MIC E. coli 25922 IMP WUXI::MIC (E. coli 25922 IMP) | MIC E. coli 25922 WUXI::MIC (E. coli 25922) | MIC E. coli BW25113 WUXI::MIC (E. coli BW25113) |
| --- | --- | --- | --- |
| CC[C@@H]1NC(=O)[C@H](Cc2ccccc2)NC(=O)CSC[C@@H](C(=O)NCC(N)=O)NC(=O)[C@H](Cc2cncn2C)NC(=O)[C@H](CCCNC(=N)N)NC(=O)[C@H](Cc2c[nH]cn2)NC(=O)[C@H](Cc2ccc(O)cc2)N(C)C(=O)[C@H](CCCNC(=N)N)NC(=O)[C@H](CO)NC(=O)CNC(=O)[C@H](Cc2c[nH]cn2)NC(=O)[C@H](Cc2ccc(-c3ccccc3)cc2)NC1=O [Compound 24] ({CH2CO}-F[Abu][Bip]HGSR[NMeY]HR[His(π-Me)]CG-NH2; thioether N-12) | 0.016 | 13 |  |
| CCC1NC(=O)C(Cc2c[nH]cn2)NC(=O)C(Cc2ccc(O)cc2)N(C)C(=O)C(CCCNC(=N)N)NC(=O)C(CO)NC(=O)CNC(=O)C(Cc2c[nH]cn2)NC(=O)C(Cc2cccc3ccccc23)NC(=O)C(CC)NC(=O)C(Cc2ccccc2)N(C)C(=O)CSCC(C(=O)NCC(N)=O)NC(=O)C(Cc2cncn2C)NC1=O (racemic) [Compound 44] |  | >100 |  |
| CC[C@@H]1NC(=O)[C@H](Cc2ccccc2)N(C)C(=O)CSC[C@@H](C(=O)NCC(N)=O)NC(=O)[C@H](Cc2cncn2C)NC(=O)[C@H](CCC(N)=O)NC(=O)[C@H](Cc2c[nH]cn2)NC(=O)[C@H](Cc2ccc(O)cc2)N(C)C(=O)[C@H](CCCNC(=N)N)NC(=O)[C@H](CO)NC(=O)CNC(=O)[C@H](Cc2c[nH]cn2)NC(=O)[C@H](Cc2cccc3ccccc23)NC1=O (racemic) [Compound 45] |  | >100 |  |
| CC[C@@H]1NC(=O)[C@H](Cc2ccccc2)N(C)C(=O)CSC[C@@H](C(=O)NCC(N)=O)NC(=O)[C@H](Cc2cncn2C)NC(=O)[C@H](CCCNC(=N)N)NC(=O)[C@H](Cc2c[nH]cn2)NC(=O)[C@H](Cc2ccc(O)cc2)N(C)C(=O)[C@H](CCCNC(=N)N)NC(=O)[C@H](CO)NC(=O)CNC(=O)[C@H](Cc2c[nH]cn2)NC(=O)[C@H](Cc2cccc3ccccc23)NC1=O [Compound 23] ({CH2CO}-[NMeF][Abu][1Nal]HGSR[NMeY]HR[His(π-Me)]CG-NH2; thioether N-12) | 0.016 | 25 |  |
| CC[C@@H]1NC(=O)[C@H](Cc2ccccc2)N(C)C(=O)CSC[C@@H](C(=O)NCC(N)=O)NC(=O)[C@H](Cc2cncn2C)NC(=O)[C@H](CCN)NC(=O)[C@H](Cc2c[nH]cn2)NC(=O)[C@H](Cc2ccc(O)cc2)N(C)C(=O)[C@H](CCCNC(=N)N)NC(=O)[C@H](CO)NC(=O)CNC(=O)[C@H](Cc2c[nH]cn2)NC(=O)[C@H](Cc2cccc3ccccc23)NC1=O (racemic) [Compound 49] |  | 50 |  |
| CC[C@@H]1NC(=O)[C@H](Cc2ccccc2)NC(=O)CSC[C@@H](C(=O)NCC(N)=O)NC(=O)[C@H](Cc2cncn2C)NC(=O)[C@H](CCC(N)=O)NC(=O)[C@H](Cc2c[nH]cn2)NC(=O)[C@H](Cc2ccc(O)cc2)N(C)C(=O)[C@H](CCCNC(=N)N)NC(=O)[C@H](CO)NC(=O)CNC(=O)[C@H](Cc2c[nH]cn2)NC(=O)[C@H](Cc2cccc3ccccc23)NC1=O (racemic) [Compound 42] |  | 100 |  |
| CC[C@H](C)[C@@H]1NC(=O)[C@H]([C@@H](C)O)NC(=O)[C@H](Cc2cncn2C)NC(=O)[C@H](Cc2ccccc2)NC(=O)CSC[C@@H](C(=O)NCC(N)=O)NC(=O)[C@H](Cc2ccccc2)NC(=O)[C@H](Cc2c[nH]c3ccccc23)NC(=O)[C@H](Cc2ccc(O)cc2)NC(=O)[C@H](Cc2cncn2C)NC(=O)[C@H](Cc2ccccc2)NC(=O)C(C)(C)NC(=O)[C@H](CCCNC(=N)N)NC(=O)[C@H](CCCCN)NC(=O)[C@H](CCCNC(=N)N)NC1=O [Compound 54, trifluoroacetic acid] ({CH2CO}-F[His(π-Me)]TIRKR[Aib]F[His(π-Me)]YWFCG-NH2; thioether N-14) | 0.5 |  | 8 |
| CC[C@@H]1NC(=O)[C@H](Cc2ccccc2)NC(=O)CSC[C@@H](C(=O)NCC(N)=O)NC(=O)[C@H](Cc2cncn2C)NC(=O)[C@H](CCCNC(=N)N)NC(=O)[C@H](Cc2cnc[nH]2)NC(=O)[C@H](Cc2ccccc2)N(C)C(=O)[C@H](CCCNC(=N)N)NC(=O)[C@H](CO)NC(=O)CNC(=O)[C@H](Cc2c[nH]cn2)NC(=O)[C@H](Cc2c[nH]c3ccccc23)NC1=O [Compound 7, (3R,6S,9S,12S,15S,18S,21S,27S,30S, 33S,36S)-N-(2-amino-2-oxo-ethyl)-15,36-dibenzyl-33-ethyl-9,18-bis(3-guanidinopropyl)-21-(hydroxymethyl)-12,27-bis(1H-imidazol-4-ylmethyl)-30-(1H-indol-3-ylmethyl)-16-methyl-6-[(3-methylimidazol-4-yl)methyl]-5,8,11,14,17,20,23,26,29,32,35,38-dodecaoxo-1-thia-4,7,10,13,16,19,22,25,28,31,34,37-dodecazacyclononatriacontane-3-carboxamide] ({CH2CO}-F[Abu]WHGSR[NMeF]HR[His(π-Me)]CG-NH2; thioether N-12) | 0.0005 |  | 2 |
| CC[C@@H]1NC(=O)[C@H](Cc2ccccc2)NC(=O)CSC[C@@H](C(=O)NCC(N)=O)NC(=O)[C@H](Cc2cncn2C)NC(=O)[C@H](CCCNC(=N)N)NC(=O)[C@H](Cc2cnc[nH]2)NC(=O)[C@H](Cc2ccccc2)N(C)C(=O)[C@H](CCCNC(=N)N)NC(=O)[C@H](CO)NC(=O)CNC(=O)[C@H](Cc2cnc[nH]2)NC(=O)[C@H](Cc2cccc3ccccc23)NC1=O (racemic) [Compound 10, rac-(3R,6S,9S,12S,15S,18S,21S,27S,30S,3 3S,36S)-N-(2-amino-2-oxo-ethyl)-15,36-dibenzyl-33-ethyl-9,18-bis(3-guanidinopropyl)-21-(hydroxymethyl)-12,27-bis(1H-imidazol-5-ylmethyl)-16-methyl-6-[(3-methylimidazol-4-yl)methyl]-30-(1-naphthylmethyl)-5,8,11,14,17,20,23,26,29,32,35,38-dodecaoxo-1-thia-4,7,10,13,16,19,22,25,28,31,34,37-dodecazacyclononatriacontane-3-carboxamide] | 2.3842E−07 |  | 8 |
| CC(C)[C@@H]1NC(=O)[C@H](Cc2ccccc2)NC(=O)CSC[C@@H](C(=O)NCC(N)=O)NC(=O)[C@H](Cc2cncn2C)NC(=O)[C@H](CCCNC(=N)N)NC(=O)[C@H](Cc2cnc[nH]2)NC(=O)[C@H](Cc2ccccc2)N(C)C(=O)[C@H](CCCNC(=N)N)NC(=O)[C@H](CO)NC(=O)CNC(=O)[C@H](Cc2c[nH]cn2)NC(=O)[C@H](Cc2cccc3ccccc23)NC1=O [Compound 6, (3R,6S,9S,12S,15S,18S,21S,27S,30S, 33S,36S)-N-(2-amino-2-oxo-ethyl)-15,36-dibenzyl-9,18-bis(3-guanidinopropyl)-21-(hydroxymethyl)-12,27-bis(1H-imidazol-4-ylmethyl)-33-isopropyl-16-methyl-6-[(3-methylimidazol-4-yl)methyl]-30-(1-naphthylmethyl)-5,8,11,14,17,20,23,26,29,32,35,38-dodecaoxo-1-thia-4,7,10,13,16,19,22,25,28,31,34,37-dodecazacyclononatriacontane-3-carboxamide] ({CH2CO}-FV[1Nal]HGSR[NMeF]HR[His(π-Me)]CG-NH2; thioether N-12) | <0.000125 |  | 2 |
| CC[C@@H]1NC(=O)[C@H](Cc2ccccc2)NC(=O)CSC[C@@H](C(=O)NCC(N)=O)NC(=O)[C@H](Cc2cncn2C)NC(=O)[C@H](CN)NC(=O)[C@H](Cc2c[nH]cn2)NC(=O)[C@H](Cc2ccc(O)cc2)N(C)C(=O)[C@H](CCCNC(=N)N)NC(=O)[C@H](CO)NC(=O)CNC(=O)[C@H](Cc2c[nH]cn2)NC(=O)[C@H](Cc2cccc3ccccc23)NC1=O (racemic) [Compound 46] |  | 100 |  |
| CC[C@@H]1NC(=O)[C@H](Cc2ccccc2)NC(=O)CSC[C@@H](C(=O)NCC(N)=O)NC(=O)[C@H](Cc2cncn2C)NC(=O)[C@H](CC)NC(=O)[C@H](Cc2c[nH]cn2)NC(=O)[C@H](Cc2ccc(O)cc2)N(C)C(=O)[C@H](CCCNC(=N)N)NC(=O)[C@H](CO)NC(=O)CNC(=O)[C@H](Cc2c[nH]cn2)NC(=O)[C@H](Cc2cccc3ccccc23)NC1=O (stereo in doubt) [Compound 41] |  | >100 |  |
| CC[C@@H]1NC(=O)[C@H](Cc2ccccc2)NC(=O)CSC[C@@H](C(=O)NCC(N)=O)NC(=O)[C@H](Cc2cncn2C)NC(=O)[C@H](CCCNC(=N)N)NC(=O)[C@H](Cc2cnc[nH]2)NC(=O)[C@H](Cc2ccc(O)cc2)N(C)C(=O)[C@H](CCCNC(=N)N)NC(=O)[C@H](CO)NC(=O)CN(C)C(=O)[C@H](Cc2cnc[nH]2)NC(=O)[C@H](Cc2c[nH]c3ccccc23)NC1=O (racemic) [Compound 13] | 0.00 |  | 4 |
| CC[C@@H]1NC(=O)[C@H](Cc2ccccc2)N(C)C(=O)CSC[C@@H](C(=O)NCC(N)=O)NC(=O)[C@H](Cc2cncn2C)NC(=O)[C@H](CN)NC(=O)[C@H](Cc2c[nH]cn2)NC(=O)[C@H](Cc2ccc(O)cc2)N(C)C(=O)[C@H](CCCNC(=N)N)NC(=O)[C@H](CO)NC(=O)CNC(=O)[C@H](Cc2c[nH]cn2)NC(=O)[C@H](Cc2cccc3ccccc23)NC1=O (racemic) [Compound 48] |  | >100 |  |
